Measurements published in patent US12059405B1, “3-(2,4,5-tris(4-chlorophenyl)-1H-imidazol-1-yl) propanoic acid as an antimicrobial compound” (KING FAISAL UNIVERSITY, priority 2023, dated 2024).

Columns and labels:
Format in all cases: cell-based
Staphylococcus aureus = assay: Agar plate disc-diffusion, antibacterial, Staphylococcus aureus; conditions: nutrient agar, 37° C., 48 hours, DMSO control zone subtracted
Protocol: (§1) The agar plate disc-diffusion method was applied. […] The discs were then placed onto the surface of agar plates (nutrient agar for bacteria and Sabouraud's dextrose agar for fungi) seeded with the test organism. Each plate contained 15 mL of the agar medium, previously seeded with 0.2 mL of the broth culture of each organism pregrown for 18 hours. The plates were incubated at 37° C. for 48 hours, and 72 hours for fungi. The inhibition zones was measured in mm. Discs impregnated with DMSO were used as a control, and its inhibition zone was subtracted from the tested compound actual inhibition zone.

Escherichia coli = assay: Agar plate disc-diffusion, antibacterial, Escherichia coli; conditions: nutrient agar, 37° C., 48 hours, DMSO control zone subtracted
Protocol: as §1

Bacillus cereus = assay: Agar plate disc-diffusion, antibacterial, Bacillus cereus; conditions: nutrient agar, 37° C., 48 hours, DMSO control zone subtracted
Protocol: as §1

Aspergillus flavus = assay: Agar plate disc-diffusion, antifungal, Aspergillus flavus; conditions: Sabouraud's dextrose agar, 37° C., 72 hours, DMSO control zone subtracted
Protocol: as §1

Pseudomonas aeruginosa = assay: Agar plate disc-diffusion, antibacterial, Pseudomonas aeruginosa; conditions: nutrient agar, 37° C., 48 hours, DMSO control zone subtracted
Protocol: as §1

[1] = tested on: Chrysosporium keratinophilum; assay: Agar plate disc-diffusion, antifungal, Chrysosporium keratinophilum; conditions: Sabouraud's dextrose agar, 37° C., 72 hours, DMSO control zone subtracted
Protocol: as §1

[2] = A = concentration of comp. = 10,000 μL
[3] = B = concentration of comp. = 30,000 μL
[4] = C = concentration of comp. = 50,000 μL

O=C(O)CCn1c(-c2ccc(Cl)cc2)nc(-c2ccc(Cl)cc2)c1-c1ccc(Cl)cc1 [V, 3-(2,4,5-tris(4-chlorophenyl)-1H-imidazol-1-yl)propanoic acid]
inhibition zone, Staphylococcus aureus, A (Staphylococcus aureus; [2]): 19 mm | inhibition zone, Staphylococcus aureus, B (Staphylococcus aureus; [3]): 23 mm | inhibition zone, Staphylococcus aureus, C (Staphylococcus aureus; [4]): 36 mm | inhibition zone, Escherichia coli, A (Escherichia coli; [2]): 27 mm | inhibition zone, Escherichia coli, B (Escherichia coli; [3]): 36 mm | inhibition zone, Escherichia coli, C (Escherichia coli; [4]): 48 mm | inhibition zone, Bacillus Cereus, A (Bacillus cereus; [2]): 21 mm | inhibition zone, Bacillus Cereus, B (Bacillus cereus; [3]): 29 mm | inhibition zone, Bacillus Cereus, C (Bacillus cereus; [4]): 38 mm | inhibition zone, Aspergillus flavus, A (Aspergillus flavus; [2]): 19 mm | inhibition zone, Aspergillus flavus, B (Aspergillus flavus; [3]): 24 mm | inhibition zone, Aspergillus flavus, C (Aspergillus flavus; [4]): 32 mm | inhibition zone, Pseudomonas aeruginosa, A (Pseudomonas aeruginosa; [2]): 25 mm | inhibition zone, Pseudomonas aeruginosa, B (Pseudomonas aeruginosa; [3]): 26 mm | inhibition zone, Pseudomonas aeruginosa, C (Pseudomonas aeruginosa; [4]): 37 mm | inhibition zone, Chrysosporium keratinophilum, A [1, 2]: 25 mm | inhibition zone, Chrysosporium keratinophilum, B [1, 3]: 26 mm | inhibition zone, Chrysosporium keratinophilum, C [1, 4]: 45 mm
